Measured values published in patent publication US20150231199A1, “PEPTIDES AND THEIR USES” (priority 2012, published 2015).
Converted amounts (≈) assume the structure as drawn. Like-named read-outs stand apart in the source and are kept apart here. Positions of bridges follow the written chain, without caps; N, C: chain ends. Residues, ends and D or L forms follow the SMILES beside them. Chains are numbered I, II in the order given. *: point of attachment. Myristoyl = CCCCCCCCCCCCCC(=O)*; Lauroyl = CCCCCCCCCCCC(=O)*; Hexanoyl = CCCCCC(=O)*

What was measured:
[1] = system: Escherichia coli ATCC27922; assay type: cell-based
Procedure: (§1) V2-dimer and all lipopeptides (FIG. 1A) used in this study were purchased from Mimotopes. All peptides were prepared by dissolving in sterile water to make 1000 μg/mL stock solutions. Minimum Inhibitory Concentration (MIC) determination was carried out in Mueller Hinton Broth (MHB) using the broth macro-dilution method as described by the Clinical and Laboratory Standards Institute (CLSI). Then, cation-adjusted MHB (CA-MHB) was used to prepare serial two fold dilutions of the compounds in test tubes. The concentration of the inoculums suspension was also adjusted to approximately 5×10^5 Colony Forming Units (CFU)/mL using MHB. Bacteria were incubated with the compounds for 24 hours at 35° C. prior to reading. In this study, Gram-positive strains used were Staphylococcus aureus DM4001 and Methicillin-resistant Staphylococcus aureus (MRSA) DM9808. Gram-negative strains used were Klebsiella pneumoniae DM4299, Pseudomonas aeruginosa ATCC23155 and Escherichia coli ATCC27922.

[2] = system: Klebsiella pneumoniae DM4299; assay type: cell-based
Procedure: as §1

[3] = system: Pseudomonas aeruginosa; assay type: cell-based
Procedure: as §1
(§2) Methods used are as described in Example 1 above.

[4] = system: Staphylococcus aureus; assay type: cell-based
Procedure: as §1, §2

[5] = system: Methicillin-resistant Staphylococcus aureus (MRSA); assay type: cell-based
Procedure: as §1, §2

[6] = system: red blood cells (RBCs) of New Zealand white rabbits; test: in vitro; assay type: cell-based, rabbit
Procedure: Fresh red blood cells (RBCs) of New Zealand white rabbits were used for this experiment. The RBCs obtained were centrifuged at 3000 rpm for 10 min. Supernatant was removed and washed twice with sterile PBS Buffer (20 mM, 100 mM NaCl, pH 7). The RBCs were further diluted to 8% stock solution in PBS. Peptides were dissolved in PBS with desired stock concentrations. When compounds were mixed with RBCs, desired concentration of 4% RBCs was obtained. For C14V2D and C16V2D, they were dissolved in Dimethylformamide ([…]; DMF) with desired stock concentrations. When compounds were mixed with RBCs, desired concentration of 4% RBCs and 0.5% DMF was obtained. DMF concentration of <1% was used as it had negligible hemolytic activity on RBCs. The mixtures were added to 1.5 mL centrifuge tubes and incubated at 37° C. for 1 h. After incubation, the blood was centrifuged at 3000 rpm for 3 min at 4° C. 100 μL of the supernatant was transferred into transparent 96-well plate. The absorbance was measured at 576 nm using a microplate reader (TECAN Infinite 200M Pro). 2% Triton X-100 was used as positive control. PBS was used as negative controls. The amount of hemoglobin released was calculated using the following equation: […]

[7] = in vitro; assay type: cell-based; conditions: human
Procedure: Cells were plated at a density of 10,000 cells per well in a 96-well opaque white plate (SPL Life Sciences Inc. Korea). Test compounds of various concentrations and controls were added to appropriate wells such that the final volume is 100 μl in each well. After 4 hours of exposure to the test compounds, the plates were removed from 37° C. incubator and equilibrated to 22° C. for 30 minutes. One hundred microliters of CellTiter-Glo reagent (Promega Inc. USA) was added to each well and the ATP assay was performed according to manufacturer's instructions. Luminescence was assessed using a micro-plate reader (Tecan Infinite 200 Pro, Switzerland). The cells exposed to 1% Triton X-100 were used as a positive control. The percent cell viable of each compound was determined using the formula below (L=Luminescence detected):
% Viability=[(Lnegative controls)−(Lexperiments)]/[(Lnegative controls)−(Lpositive controls)]×100

[8] = in vitro; assay type: cell-based; conditions: human; remark: listed apart in the source
Procedure: The cytotoxicity of individual compounds screened was determined by the lactate dehydrogenase (LDH) assay. In brief, human corneal fibroblast cells were plated at a density of 10,000 cells per well in a 96-well opaque white plate (SPL Life Sciences Inc). Test compounds of various concentrations and controls were added to appropriate wells such that the final volume is 100 μl in each well. After 4 hours of exposure to the test compounds, the plates were removed from 37° C. incubator and equilibrated to 22° C. for 30 minutes. One hundred microliters of Cyto-TOX One reagent (Promega Inc. USA) was added to each well and the LDH assay was performed according to manufacturer's instructions. Fluorescence was assessed at an excitation wavelength of 560 nm and an emission wavelength of 590 nm using a micro-plate reader (Tecan Infinite 200 Pro, Switzerland). The cells exposed to 1% Triton X-100 were used as a positive control and treated as maximum releasing of LDH. The percent specific cytotoxicity of each compound was determined using the formula below (I=intensity):
% Cytotoxicity=[(Iexperiments)−(Inegative controls)]/[Ipositive controls)−(Inegative controls)]×100

[9] = system: Klebsiella pneumoniae; assay type: cell-based
Procedure: The minimum inhibitory concentration (MIC) was determined using the broth microdilution method. Bacterial cells (shown in Table 6) are grown in Mueller Hinton Broth (MHB) overnight. 100 μL of adjusted inoculum in MHB is added to 100 μL of each dilution of peptide or antibiotics dissolved in the broth, so as to yield a final cell density of 10^5 to 10^6 cfu/mL in each well. The plates were incubated at 35° C. for 24 h and the absorbance at 600 nm (OD600) was monitored every 30 minutes. A positive control well contained the broth and organisms (no peptides/antibiotics), and a negative control tube contains only the broth. The MIC of peptides for each clinical isolate or reference organism was recorded as the lowest concentration of peptide/antibiotic that inhibited visible growth of the test organism. To study the effect of Mg2+ on MIC of branched peptides, the concentration of MgCl2 was varied in MHB and the MIC was determined as before.

Structure (SMILES)	MIC [1] [µM]	MIC [2] [µM]	MIC [3] [µM]	MIC [4] [µM]	MIC [5] [µM]	HC10 ([6]; red cells of rabbit, 1 h) [µg/mL]	HC10 [6]	CC50 at 4 h [7] [µM]	CC50 at 4 h [8] [µM]	MIC [9] [µM]
CCCCCC(=O)N[C@@H](CCCNC(=N)N)C(=O)NCC(=O)N[C@@H](CCCNC(=N)N)C(=O)N[C@@H](CCCCN)C(=O)N[C@H](C(=O)N[C@H](C(=O)N[C@@H](CCCNC(=N)N)C(=O)N[C@@H](CCCNC(=N)N)C(=O)NCCCC[C@H](NC(=O)[C@H](CCCNC(=N)N)NC(=O)[C@H](CCCNC(=N)N)NC(=O)[C@@H](NC(=O)[C@@H](NC(=O)[C@H](CCCCN)NC(=O)[C@H](CCCNC(=N)N)NC(=O)CNC(=O)[C@H](CCCNC(=N)N)NC(=O)CCCCC)C(C)C)C(C)C)C(=O)N[C@@H](CCCCN)C(=O)O)C(C)C)C(C)C [Peptide C6-V2D, (C5H11—CO—NH—RGRKVVRR)2KK] (I: Hexanoyl-RGRKVVRRKK-OH / II: Hexanoyl-RGRKVVRR; amide I:9-II:C)	2.51 (≈ 6.24 µg/mL)	5.03 (≈ 12.5 µg/mL)	5.03 (≈ 12.5 µg/mL)	2.51 (≈ 6.24 µg/mL)	1.26 (≈ 3.13 µg/mL)	>2000	–	–	–	–
CCCCCCCCCCCC(=O)N[C@@H](CCCNC(=N)N)C(=O)NCC(=O)N[C@@H](CCCNC(=N)N)C(=O)N[C@@H](CCCCN)C(=O)N[C@H](C(=O)N[C@H](C(=O)N[C@@H](CCCNC(=N)N)C(=O)N[C@@H](CCCNC(=N)N)C(=O)NCCCC[C@H](NC(=O)[C@H](CCCNC(=N)N)NC(=O)[C@H](CCCNC(=N)N)NC(=O)[C@@H](NC(=O)[C@@H](NC(=O)[C@H](CCCCN)NC(=O)[C@H](CCCNC(=N)N)NC(=O)CNC(=O)[C@H](CCCNC(=N)N)NC(=O)CCCCCCCCCCC)C(C)C)C(C)C)C(=O)N[C@@H](CCCCN)C(=O)O)C(C)C)C(C)C [Peptide C12-V2D, (C11H23—CO—NH—RGRKVVRR)2KK] (I: Lauroyl-RGRKVVRRKK-OH / II: Lauroyl-RGRKVVRR; amide I:9-II:C)	4.71 (≈ 12.5 µg/mL)	4.71 (≈ 12.5 µg/mL)	4.71 (≈ 12.5 µg/mL)	4.71 (≈ 12.5 µg/mL)	4.71 (≈ 12.5 µg/mL)	–	542.8 ± 53.0 µg/mL	–	–	–
CCCCCCCCCCCCCC(=O)N[C@@H](CCCNC(=N)N)C(=O)NCC(=O)N[C@@H](CCCNC(=N)N)C(=O)N[C@@H](CCCCN)C(=O)N[C@H](C(=O)N[C@H](C(=O)N[C@@H](CCCNC(=N)N)C(=O)N[C@@H](CCCNC(=N)N)C(=O)NCCCC[C@H](NC(=O)[C@H](CCCNC(=N)N)NC(=O)[C@H](CCCNC(=N)N)NC(=O)[C@@H](NC(=O)[C@@H](NC(=O)[C@H](CCCCN)NC(=O)[C@H](CCCNC(=N)N)NC(=O)CNC(=O)[C@H](CCCNC(=N)N)NC(=O)CCCCCCCCCCCCC)C(C)C)C(C)C)C(=O)N[C@@H](CCCCN)C(=O)O)C(C)C)C(C)C [Peptide C14-V2D, (C13H23—CO—NH—RGRKVVRR)2KK] (I: Myristoyl-RGRKVVRRKK-OH / II: Myristoyl-RGRKVVRR; amide I:9-II:C; N-terminus and C-terminus assumed)	1.15 (≈ 3.12 µg/mL)	9.22 (≈ 25 µg/mL)	2.30 (≈ 6.24 µg/mL)	2.30 (≈ 6.24 µg/mL)	2.30 (≈ 6.24 µg/mL)	–	^b251.82 ± 5.2 ug/mL	–	–	–
CC(C)[C@H](NC(=O)[C@H](CCCCN)NC(=O)[C@H](CCCNC(=N)N)NC(=O)CNC(=O)[C@@H](N)CCCNC(=N)N)C(=O)N[C@H](C(=O)N[C@@H](CCCNC(=N)N)C(=O)N[C@@H](CCCNC(=N)N)C(=O)NCCCC[C@H](NC(=O)[C@H](CCCNC(=N)N)NC(=O)[C@H](CCCNC(=N)N)NC(=O)[C@@H](NC(=O)[C@@H](NC(=O)[C@H](CCCCN)NC(=O)[C@H](CCCNC(=N)N)NC(=O)CNC(=O)[C@@H](N)CCCNC(=N)N)C(C)C)C(C)C)C(=O)N[C@@H](CCCCN)C(=O)O)C(C)C [Peptide V2D, (RGRKVVRR)2KK] (I: H-RGRKVVRRKK-OH / II: H-RGRKVVRR; amide I:9-II:C)	2.73 (≈ 6.25 µg/mL)	5.46 (≈ 12.5 µg/mL)	5.46 (≈ 12.5 µg/mL)	5.46 (≈ 12.5 µg/mL)	2.73 (≈ 6.25 µg/mL)	>2000	–	> 1000	> 1000	2.7 (≈ 6.19 µg/mL)
